Values quoted from earlier work in patent US20100095963A1, “PHARMACEUTICAL COMPOSITIONS” (Schering Corporation, priority 2002, published 2010).

What was measured:
[1] = not given; remark: listed apart in the source

- partition coefficient between octanol and water: greater than 5000
- solubility in acetone ([1]; acetone): soluble
- solubility in chloroform ([1]; chloroform): soluble
- solubility in ethanol ([1]; ethanol): slightly soluble
- solubility in isopropanol ([1]; isopropanol): slightly soluble
- solubility in methanol ([1]; methanol): slightly soluble
- solubility in tetrahydrofuran ([1]; tetrahydrofuran): freely soluble
- solubility in water ([1]; water): practically insoluble
Compound: C[C@@H]1C[C@H]2[C@@H]3CCC4=CC(=O)C=C[C@]4(C)[C@@]3(Cl)[C@@H](O)C[C@]2(C)[C@@]1(OC(=O)c1ccco1)C(=O)CCl [Mometasone furoate, 9,21-Dichloro-11(beta),17-dihydroxy-16(alpha)-methylpregna-1,4-diene-3,20-dione 17-(2 furoate)]
